Source: PMC12040169 (PLOS Biology, 2025)

Test: in vitro
Settings: human, hela cells, % viability

SMILES | viability at 28.5 h, 10 µM [%]
COc1ccc(-n2[nH]c(C)c(Cc3c(Cl)cccc3Cl)c2=O)cc1 [CBK084521] | 94.5
COc1ccccc1-c1nccnc1OCc1cccc(OC)c1OC [CBK106825] | 81.2
CN(C(=O)CN1CSCC1=O)c1nc2c(s1)CC(c1ccccc1)CC2 (centres unmarked) [CBK305526] | 91.6
COc1ccccc1OCC(O)CN1CCN(C(=O)c2ccccc2)CC1 (centres unmarked) [CBK074386C] | 111
CC(=O)C(Sc1nc(N2CCOCC2)nc(N2CCOCC2)n1)C(=O)Nc1ccccc1 (centres unmarked) [CBK266643] | 93
Nc1ncc2ncn([C@@H]3O[C@H](CO)[C@H](O)C3O)c2n1 (some centres unmarked) [CBK201318] | 92.8
Cc1cc(NC(=O)CN2CCN(Cc3ccc4c(c3)CCO4)CC2)on1 [CBK305610] | 92.5
Clc1ccc(CN2CCC(Oc3cncc(OCC4COc5ccccc5O4)n3)C2)cc1 (centres unmarked) [CBK084364] | 94.7
COc1ccc(C(=O)Nc2ccccc2C(=O)NCCCC(=O)O)cc1 [CBK287024] | 111
CCOc1cc(OCC)cc(C(=O)N2CCCC3(CC(=O)c4ccc(C)cc4O3)C2)c1 (centres unmarked) [CBK168067] | 93.9
CCn1cncc1CN(Cc1ccc(F)cc1)CC1CCCO1 (centres unmarked) [CBK283036] | 98
CCCCn1nc(C2CC2)nc1-c1cnn2cc(C)cnc12 [CBK306683] | 89.6
O=C(O)c1ccccc1-c1ccccc1C(=O)Nc1cccc(-c2nc3ccccc3o2)c1 [CBK262767] | 103
CC(C)C1OC(NCCN2CCOCC2)=NC1=O (centres unmarked) [CBK074097T] | 91
O=[N+]([O-])c1ccccc1S(=O)(=O)N1CCN(Cc2cccnc2)CC1 [CBK264168G] | 68.3
CN1CCC(N(C)C(=O)NCCN2CCOCC2)C1 (centres unmarked) [CBK156002] | 96.3
O=C(c1ccccc1Cl)N1CCN(c2ccc([N+](=O)[O-])c(NCc3cccnc3)c2)CC1 [CBK265866] | 108
COc1ccc(C(=O)N[C@H]2C[C@@H]3C(=O)N[C@H]4CCN(C(=O)C5CCC5)[C@@H]4C(=O)N3C2)cc1 [CBK289266] | 89.3
Fc1cccc(-c2nc3cnccn3c2NCc2cccs2)c1 [CBK282363] | 97.5
C/C(=N\NC(=O)CCC(=O)Nc1ccc(I)cc1)c1ccc(O)cc1O [CBK261971] | 89.9
Cc1csc(C(Cc2cccs2)NCC2CCOC2)n1 (centres unmarked) [CBK285051] | 110

SMILES | viability at 28.5 h, 10 µM [%]
CC(Oc1ccccc1)C(=O)N1CCN(C/C=C/c2ccccc2)CC1 (centres unmarked) [CBK269050] | 98
COc1ccc(-n2cnc3ccccc3c2=O)cc1 [CBK288145] | 94.4
CCN(CC)C(=O)[C@@H](C)C1CC[C@@]2(C)CC[C@H](NC(=O)C3CC3)[C@@H](C)[C@@H]2[C@H]1O (some centres unmarked) [CBK289443] | 97.5
CCOC(=O)N1CCC(NC(=O)N(CCCN(C)C)Cc2ccc3c(c2)OCO3)CC1 [CBK159231] | 91
N#Cc1cccc(-c2cnc(N)c(-c3ccc(O)cc3)n2)c1 [CBK115630] | 98
Cc1ccc(O)c(CN[C@@H]2CCC[C@H]2Cc2cc(C)no2)c1 [CBK284936] | 101
Cc1ccccc1NC(=O)CC(C(=O)O)N1CCOCC1 (centres unmarked) [CBK266969] | 113
COc1ccc(-c2cnc3[nH]c(=O)n(CCN4CCOCC4)c3n2)cc1 [CBK064782] | 103
O=C(O)C1C2CC(c3ccccc3)C(C2)C1C(=O)O (centres unmarked) [CBK287147] | 95.7
O=C(CC1(O)C(=O)N(Cc2ccc3c(c2)OCO3)c2ccccc21)c1cccnc1 (centres unmarked) [CBK269633] | 103
OC(CNc1nccnc1-c1cccc(C(F)(F)F)c1)COc1ccccc1 (centres unmarked) [CBK037010] | 89.9
N#CCC(=O)Nc1ccc(C(=O)N2CCN(c3ccccc3)CC2)cc1 [CBK306060] | 91.9
CC1(C)CCCN1C1=NC(=O)C(c2ccccc2)O1 (centres unmarked) [CBK023070] | 104
CCC(=O)Nc1nnc(-c2ccc3c(c2)OCCO3)o1 [CBK287404] | 92.6
CCOC(=O)N1CCN(C(=O)COc2cccc3ccccc23)CC1 [CBK262992] | 93
COCC(=O)N1CCc2sccc2C1c1ccc(NCc2cccc(OC)c2)cc1 (centres unmarked) [CBK286454] | 92.9
O=C(NC1CC1)[C@H]1CN(Cc2ccccc2)C[C@@H]1C(=O)c1ccccc1 [CBK285264] | 105
CCN1CCN(CCNC(=O)Nc2ccccc2C)CC1 [CBK267842] | 108
CC1(C)CC(=NNC(=O)CCc2cc(C(C)(C)C)c(O)c(C(C)(C)C)c2)CC(C)(C)N1 [CBK261952] | 108
Clc1ccc(-c2cn(-c3cnc4ccccc4c3)nn2)cc1 [CBK113044] | 94.8
COc1cnc(-c2ccsc2)c(NC(=O)CC(C)C)n1 [CBK145292] | 94

SMILES | viability at 28.5 h, 10 µM [%]
Cc1ccccc1OCC(=O)Nc1ccc(CSc2ccccc2)cc1 [CBK264651] | 93
Cc1cc(N2CCCC(N(C)S(=O)(=O)c3cccc(F)c3)CC2)nc(C)n1 (centres unmarked) [CBK285935] | 85.5
COCCNc1cc(-c2ccncc2)ncn1 [CBK037729] | 87.6
NS(=O)(=O)c1ccc(-c2nc(-c3ccccc3)no2)cc1 [CBK269957] | 87.8
O=C(Oc1c(Cl)cc(Cl)c2cccnc12)c1cc(S(=O)(=O)N2CCCCC2)ccc1Cl [CBK264518] | 100
CN(C)CCN(CCc1ccccc1)Cc1ccncc1 [CBK283145] | 91.5
Nc1nnc(SCC(=O)N(Cc2ccccc2F)C2CC2)s1 [CBK295179] | 84.3
COc1ccc(C(=O)N/C(=C/c2ccc([N+](=O)[O-])cc2)c2nc3ccc(C(F)(F)F)cc3[nH]2)cc1OC [CBK263199] | 104
CC(C)CC(NC(=O)Cc1cccc(O)c1)c1nnc2n1CCNCC2 (centres unmarked) [CBK307183] | 98.3
COC(=O)CCc1ccc(S(=O)(=O)N2CCCN(Cc3ccc(Cl)c(C(F)(F)F)c3)CC2)cc1 [CBK062995] | 102
Cc1[nH]c(=O)[nH]c(=S)c1C(=O)Nc1ccc2[nH]c(C(F)(F)F)nc2c1 [CBK115494] | 95.2
COC(=O)c1ccc2c(c1)C(=O)N(c1ccc(C(=O)OCC(C)C)cc1)C2=O [CBK156802] | 92.1
CCNC(=O)Nc1cc2ccccc2c(-c2ccc(F)cc2OC)n1 [CBK085731] | 62.9
CCCCN1CCC2CN(CCCC(c3ccc(F)cc3)c3ccc(F)cc3)CCN2C1=O (centres unmarked) [CBK024880C] | 99.5
CCC(=O)NC(c1ccc(C)cc1)c1cc([N+](=O)[O-])c2cccnc2c1O (centres unmarked) [CBK265048] | 121
CS(=O)(=O)N(CC(=O)N1CCN(C(c2ccccc2)c2ccccc2)CC1)c1cccc(F)c1 [CBK266330] | 105
Cc1cccc2cc(C#N)c(NCCCn3ccnc3)nc12 [CBK109369] | 77.9
Nc1cc2c(cc1Cl)C(=O)NC2=O [CBK028783] | 101
CC(C)(C)c1ccc(S(=O)(=O)N2CCN(CCC(=O)O)CC2)cc1 [CBK297089] | 103
FC(F)(F)c1cccc(-c2cnn(-c3ccc4c(c3)OCO4)n2)c1 [CBK112664] | 89.6
